Test results as given in patent US7947280B2 (priority 2003, dated 2011).
“Also recorded” adds a separate entry of the source.

Columns and labels:
[1] = test system: mice with experimentally induced heart failure; details: Pyr-apelin-13 2 mg/kg/day; between weeks 1 and 3; n=6
Procedure: Left anterior decending artery ligation. Animals were anesthetized with 2-3% inhalational isofluorane and 50 mg/kg sodium pentobarbital intraperitoneally. […] The animals were placed in the left lateral decubitus position and a thoracotomy performed at the 4th intercostal space. Peak inspiratory pressures were monitored and maintained between 10-14 cm of water. The lung was retracted and the pericardium incised. The left coronary artery was ligated with a 7-0 prolene suture until blanching of the distal left ventricle was noted. Heart rate and temperature were monitored during the procedure. After ascertaining complete hemostasis, the chest wall was closed in four layers. The animals were weaned from the ventilator and anesthetic and then extubated and monitored in the recovery area.
Treadmill exercise. […] In mice, a commonly used commercially available setup (Columbus Instruments) employs a moving belt encased in a sealed Plexiglas enclosure, allowing for measurement of oxygen consumption and carbon dioxide production. Stimulus devices consist of a metal shock grid. Metabolic measurements are performed using an open circuit volumetric gas analysis system (Oxymax System; Columbus Instruments). The low dead space of this circuit allows quick gas equilibration with a t1/2 of 30 s, which is highly suitable for use during graded exercise protocols. […]

[2] = test system: mice given angiotensin II and isoproterenol infusions; test: Neurohormonal cardiomyopathy model, echocardiography; format: in vivo, mouse; details: wild type mice
Procedure: Echocardiography. Two dimensional and M mode echocardiography was carried out using thea GE Vivid ultrasound platform with the small animal probe (13 MHz). […] After shaving of the anterior chest, mice were warmed using a heat lamp. Short axis views of the left ventricle were captured at the level of the papillary muscles in 2D and M modes. Analysis was carried out offline and fractional shortening calculated as [LVEDD−LVESD]/LVEDD where LVEDD is left ventricular end diastolic diameter (measured at the tip of the mitral valve leaflets) and LVESD is left ventricular end systolic diameter.
Neurohormonal cardiomyopathy model. […] All mice were age 12-14 weeks.

ApoE-KO mice = test: Vein graft neointimal hyperplasia model; format: in vivo, mouse
Procedure: Animals. Mice were maintained in temperature-controlled (20° C. to 22° C.) environment with a 12-hour light-dark cycle. Sterile water and standard chow diet were available ad libitum. All mice were C57BL/6J ApoE-KO male mice (Jackson Laboratories, Bar Harbor, […].) between the ages of 8-12 weeks. […] Animal procedures were carried out in accordance with the Institutional Review Board Guidelines at Stanford University.

[3] = test system: superoxide production in aortic tissue of apoE knockout mice; test: Lucigenin-enhanced chemiluminescence of aortic superoxide; format: in vivo, mouse; details: addition of apelin to AngII
Procedure: Lucigenin-enhanced chemiluminescence. Total aortic superoxide was measured by lucigenin-enhanced chemiluminescence as described previously. Aortas were harvested flushed with Krebs-HEPES buffer, opened longitudinally and divided into halves. Vessels were gassed with 95% oxygen/5% carbon dioxide in warmed Krebs-HEPES buffer for 30 minutes before measurements of chemiluminescence in a luminometer (manufacturer, location) using 20 μmol/L lucigenin. One half of each vessel was incubated in L-NAME (1 mmol/L). After measuring baseline readings for 4 minutes, samples were equilibrated and dark adapted for 5 mins, and chemiluminescence was recorded for 10 minutes. Recordings were performed blinded to the samples identity. Results were expressed as counts per second per milligram of tissue dry weight.

[4] = test system: superoxide production in aortic sections; test: Dihydroethidium oxidative fluorescence microtopography; format: in vivo, mouse
Procedure: Oxidative fluorescent microtopography. Superoxide was detected in the layers of the vessel wall using fluorescent probe dihydroethidium as described previously. Fresh segments of upper descending thoracic aorta were frozen in OCT compound. […] Molecular Probes). Images were obtained on a confocal microscope (Bio-Rad MRC-1024 laser; filter settings: excitation filter 488 nm; emission filter 550 nm). 2-hydroxyethidium fluorescence was measured from high power (60× mag) images. Endothelium by quantifying fluorescence (intensity×area) on the luminal side of the internal elastic lamina, media between the internal and external elastic lamina, and adventitia outside the external elastic lamina. Quantification was performed using Image Pro Plus software (Media Cybernetics, Silver Springs, Md.). Medial Analysis was performed blind to the samples identity.

[5] = test system: AT1R and APJ heterodimerization; test: AT1R-APJ receptor heterodimerization by immunoprecipitation; format: cell-based; details: addition of apelin
Procedure: Cells were immediately lysed.
Immunoprecipitation and Western Blotting Immunoprecipitation was performed as previously described (REF). In brief, cells were lysed using 10× Cell Lysis Buffer (Cell Signaling Technologies CITY). Lysates were precleared with protein G and immunoprecipitation was performed with the respective antibodies at concentration of 1 mg/mL for 24 hrs at 4C. Protein G agarose was added and incubated for additional 2 hours. Western blotting on SDS-PAGE gels were performed as previously described, and the bands were visualized using the enhanced chemiluminescence system (Amersham Biosciences).

eNOS protein = details: experimental groups incl. apelin treated animals
Procedure: Immunoblotting. Lung homogenate (n≧3 per group) were homogenized on ice for 20 seconds in lysis buffer (50 mmol/L Tris, pH 7.5, 150 mmol/L NaCl, 0.1% SDS, 0.5% deoxycholate, 1% Nonidet P-40) containing protease inhibitors (Complete; Boehringer Mannheim) and 1 mmol/L phenylmethylsulfonyl fluoride. Protein lysates (8 μg) were resolved using SDS-PAGE and transferred to polyvinylidene difluoride membranes. Membranes were incubated with a 1:2000 dilution of mouse anti-eNOS monoclonal antibody (Cell Signaling, Location), followed by a 1:2500 dilution of rabbit anti-mouse horseradish peroxidase-conjugated secondary antibody (Promega). Protein bands were visualized by chemiluminescence.

[6] = test system: Erk1/2 phosphorylation in HEK293 cells expressing AT1R; details: AngII, 5 and 15 minute timepoints
Procedure: Cell Culture, Transfections, and Stimulation Assays HEK293 cells were cultured in Dulbecco's modified Eagle's medium with 10% fetal bovine serum, 10 units/ml penicillin, and 100 μg/ml streptomycin. Transient transfection of the HEK293 cells was carried out using FuGene reagent per manufacturer's protocols in 6 well plates (Roche). […] For ERK phosphorylation, transfected HEK293 cells were serum starved for 3 hours and incubated with the agonist for designated times at 37 C. Cells were immediately lysed.

isolated rat heart = details: Szokodi et al; cited from earlier work
rats = details: intravenous bolus injection in rats; Tatemoto et al., Lee et al.; cited from earlier work
[7] = test system: isolated human saphenous vein; details: Katugampola et al.; cited from earlier work

apelin
average time to exhaustion / exercise capacity [1]: marked, statistically significant increase | heart failure phenotype ([2]; apelin infused concomitantly with angiotensin II and isoproterenol): completely abrogated; also recorded: abrogated completely; also recorded: ameliorates the heart failure phenotype completely | fractional shortening (post) ([2]; pyr-apelin-13 2 mg/kg/day with angiotensin II and isoproterenol, 7 day minipumps): 42.6±1.3% | reduction of mean vessel wall area (ApoE-KO mice; apelin added to AngII treated animals): 34% | reduction of mean vessel wall area vs saline treated controls (ApoE-KO mice; apelin, 4 weeks following vein graft surgery): 42% | AngII stimulated increase in total chemiluminescence [3]: abolished | aortic superoxide production vs AngII alone ([4]; apelin added to AngII treated mice): significantly reduced | Total aortic fluorescence, lower than saline treated controls ([4]; apelin treated mice): 3 fold | AngII induced receptor heterodimerization [5]: did not affect | eNOS protein levels in aortas (eNOS protein): no difference | phosphorylation of Erk1/2 [6]: dramatically reduced | EC50, contractility of the isolated rat heart (isolated rat heart): low picomolar range | mean arterial pressure (rats): decrease | effect on isolated human saphenous vein [7]: potently contracts
